Test results: US4065616A, “Processes for production of a 1-N-(α-hydroxy-.PHI.-amino alkanoyl)-3-deoxy-5-O-pentafuranosyl neamine and new compounds produced by the same processes” (Zaidan Hojin Biseibutsu Kagaku Kenkyu Kai, priority 1975, dated 1977)
In brackets after ≈: the same amount, converted by molar mass. Where two headings read alike, the source gives them in different places.

What was measured:
Assay in all cases: M.I.C. by standard serial dilution method
Format in all cases: cell-based
[1] = system: Escherichia coli K-12 JR66/W677; conditions: K12JR66/W677, 18 h, read-out: minimum inhibitory concentration (M.I.C.)
Method: (§1) These particular compounds, that is, 1-n-(α-hydroxy-ω-aminoalkanoyl)-3'-deoxy-5-O-pentofuranosylneamines according to the aforesaid general formula (I) have useful antibacterial activity against a wide variety of bacteria, including gram-negative bacteria and gram-positive bacteria. The minimum inhibitory concentration (M.I.C.) (mcg/ml) of these compounds against various organisms was determined by a standard serial dilution method at an incubation temperature of 37° C, the estimation being made after 18 hours incubation or each test organism, except that the incubation time was 48 hours for Mycobacterium smegmatis. The incubation medium used was nutrient agar.

[2] = system: Escherichia coli K-12 W677; conditions: read-out: minimum inhibitory concentration (M.I.C.)
Method: as §1

[3] = system: Klebsiella pneumoniae Type 22, No. 3038; conditions: read-out: minimum inhibitory concentration (M.I.C.)
Method: as §1

[4] = system: Escherichia coli K-12 LA 290 R55; conditions: K12LA290R55, 18 h, read-out: minimum inhibitory concentration (M.I.C.)
Method: as §1

[5] = system: Pseudomonas aeruginosa A3; conditions: P. aeruginosa A3, nutrient agar, 37° C, 18 hours, read-out: minimum inhibitory concentration (M.I.C.)
Method: as §1

[6] = system: Escherichia coli K-12 ML 1629; conditions: read-out: minimum inhibitory concentration (M.I.C.)
Method: as §1

Escherichia coli NIHJ = conditions: read-out: minimum inhibitory concentration (M.I.C.)
Method: as §1

Sarcina lutea PCl 1001 = conditions: Micrococcus luteus, PCL1001, nutrient agar, 37° C, 18 hours, read-out: minimum inhibitory concentration (M.I.C.)
Method: as §1

Bacillus subtilis B-558 = conditions: read-out: minimum inhibitory concentration (M.I.C.)
Method: as §1

[7] = system: Mycobacterium smegmatis ATCC 607; conditions: Mycolicibacterium smegmatis, ATCC607, nutrient agar, 37° C, 48 hours, read-out: minimum inhibitory concentration (M.I.C.)
Method: as §1

[8] = system: Klebsiella pneumoniae PCI 602; conditions: read-out: minimum inhibitory concentration (M.I.C.)
Method: as §1

[9] = system: Pseudomonas aeruginosa TI-13; conditions: TI13, P. aeruginosa TI-13, nutrient agar, 37° C, 18 hours, read-out: minimum inhibitory concentration (M.I.C.)
Method: as §1

[10] = system: Pseudomonas aeruginosa 99; conditions: P. aeruginosa 99, nutrient agar, 37° C, 18 hours, read-out: minimum inhibitory concentration (M.I.C.)
Method: as §1

Proteus rettgeri GN 311 = conditions: Providencia rettgeri, GN311, nutrient agar, 37° C, 18 hours, read-out: minimum inhibitory concentration (M.I.C.)
Method: as §1

[11] = system: Escherichia coli K-12 LA 290 R64; conditions: K12LA290R64, 18 h, read-out: minimum inhibitory concentration (M.I.C.)
Method: as §1

Proteus rettgeri GN 466 = conditions: Providencia rettgeri, read-out: minimum inhibitory concentration (M.I.C.)
Method: as §1

[12] = system: Escherichia coli K-12 LA 290 R56; conditions: K12LA290R56, 18 h, read-out: minimum inhibitory concentration (M.I.C.)
Method: as §1

[13] = system: Escherichia coli K-12 ML 1410; conditions: K12ML1410, E. coli K-12 ML 1410, nutrient agar, 37° C, 18 hours, read-out: minimum inhibitory concentration (M.I.C.)
Method: as §1

[14] = system: Staphylococcus aureus FDA 209P; conditions: FDA209P, read-out: minimum inhibitory concentration (M.I.C.)
Method: as §1

[15] = system: Escherichia coli K-12 ML 1630; conditions: K12ML1630, E. coli K-12 ML 1630, nutrient agar, 37° C, 18 hours, read-out: minimum inhibitory concentration (M.I.C.)
Method: as §1

[16] = system: Pseudomonas aeruginosa No. 12; conditions: P. aeruginosa No. 12, nutrient agar, 37° C, 18 hours, read-out: minimum inhibitory concentration (M.I.C.)
Method: as §1

Escherichia coli K-12 = conditions: read-out: minimum inhibitory concentration (M.I.C.)
Method: as §1

[17] = system: Pseudomonas aeruginosa GN 315; conditions: GN315, P. aeruginosa GN 315, nutrient agar, 37° C, 18 hours, read-out: minimum inhibitory concentration (M.I.C.)
Method: as §1

Salmonella typhosa T-63 = conditions: Salmonella enterica, 18 h, read-out: minimum inhibitory concentration (M.I.C.)
Method: as §1

[18] = system: Escherichia coli K-12 ML 1410 R81; conditions: 18 h, read-out: minimum inhibitory concentration (M.I.C.)
Method: as §1

[19] = K12W677, E. coli K-12 W677, nutrient agar, 37° C, 18 hours
[20] = E. coli NIHJ, nutrient agar, 37° C, 18 hours
[21] = B558, B. subtilis B-558, nutrient agar, 37° C, 18 hours
[22] = GN466, Proteus rettgeri GN 466, nutrient agar, 37° C, 18 hours
[23] = S. aureus FDA 209P, nutrient agar, 37° C, 18 hours
[24] = K12, E. coli K-12, nutrient agar, 37° C, 18 hours

Row | Structure (SMILES) | MIC [1] [µg/mL] | MIC [2, 19] [µg/mL] | MIC [4] [µg/mL] | MIC [5] [µg/mL] | MIC (Escherichia coli NIHJ; [20]) [µg/mL] | MIC (Sarcina lutea PCl 1001) [µg/mL] | MIC (Bacillus subtilis B-558; [21]) [µg/mL] | MIC [7] [µg/mL] | MIC [9] [µg/mL] | MIC [10] [µg/mL] | MIC (Proteus rettgeri GN 311) [µg/mL] | MIC [11] [µg/mL] | MIC (Proteus rettgeri GN 466; [22]) [µg/mL] | MIC [12] [µg/mL] | MIC [13] [µg/mL] | MIC [14, 23] [µg/mL] | MIC [15] [µg/mL] | MIC [16] [µg/mL] | MIC [17] [µg/mL] | MIC (Salmonella typhosa T-63) [µg/mL] | other results
1 | NCC[C@H](O)C(=O)N[C@@H]1C[C@H](N)[C@@H](O[C@H]2O[C@H](CN)[C@@H](O)C[C@H]2N)[C@H](O[C@@H]2O[C@H](CO)[C@@H](O)[C@H]2O)[C@H]1O [Compound No. 5, 1-N-((S)-4-amino-2-hydroxybutyryl)-3'-deoxy-5-O-β-D-ribofuranosylneamine] | 1.56 (≈ 2.89 µM) | 0.39 (≈ 0.723 µM) | 0.78 (≈ 1.45 µM) | 3.12 (≈ 5.78 µM) | 0.78 (≈ 1.45 µM) | 25 (≈ 46.3 µM) | < 0.2 | < 0.2 | 25 (≈ 46.3 µM) | 12.5 (≈ 23.2 µM) | 3.12 (≈ 5.78 µM) | 0.2 (≈ 0.371 µM) | 0.78 (≈ 1.45 µM) | 0.39 (≈ 0.723 µM) | 0.78 (≈ 1.45 µM) | 0.39 (≈ 0.723 µM) | 1.56 (≈ 2.89 µM) | 25 (≈ 46.3 µM) | > 100 | 0.39 (≈ 0.723 µM) | MIC ([3]; K. pneumoniae Type 22, No. 3038, nutrient agar, 37° C, 18 hours): 0.78 µg/mL (≈ 1.45 µM); MIC ([6]; K12ML1629, E. coli K-12 ML 1629, nutrient agar, 37° C, 18 hours): 0.39 µg/mL (≈ 0.723 µM); MIC ([8]; PCI602, K. pneumoniae PCI 602, nutrient agar, 37° C, 18 hours): 0.39 µg/mL (≈ 0.723 µM); MIC (Escherichia coli K-12; [24]): 0.2 µg/mL (≈ 0.371 µM)
2 | NC[C@H](O)C(=O)N[C@@H]1C[C@H](N)[C@@H](O[C@H]2O[C@H](CN)[C@@H](O)C[C@H]2N)[C@H](O[C@@H]2O[C@H](CO)[C@H](O)[C@H]2O)[C@H]1O [Compound No. 2, 1-n-((S)-3-amino-2-hydroxypropionyl)-3'-deoxy-5-O-β-D-xylofuranosylneamine] | 0.78 (≈ 1.48 µM) | 0.78 (≈ 1.48 µM) | 0.78 (≈ 1.48 µM) | 3.12 (≈ 5.94 µM) | 0.78 (≈ 1.48 µM) | 25 (≈ 47.6 µM) | 0.78 (≈ 1.48 µM) | 0.39 (≈ 0.742 µM) | 25 (≈ 47.6 µM) | 12.5 (≈ 23.8 µM) | 6.25 (≈ 11.9 µM) | 0.78 (≈ 1.48 µM) |  | 0.78 (≈ 1.48 µM) | 3.12 (≈ 5.94 µM) |  | 1.56 (≈ 2.97 µM) | 12.5 (≈ 23.8 µM) | > 100 | 0.78 (≈ 1.48 µM) | MIC ([3]; 18 h): 1.56 µg/mL (≈ 2.97 µM); MIC [18]: 3.12 µg/mL (≈ 5.94 µM); MIC ([6]; K12ML1629, 18 h): 1.56 µg/mL (≈ 2.97 µM); MIC ([8]; PCI602, 18 h): 1.56 µg/mL (≈ 2.97 µM); MIC (Proteus rettgeri GN 466; GN466, 18 h): 1.56 µg/mL (≈ 2.97 µM); MIC ([14]; 18 h): 1.56 µg/mL (≈ 2.97 µM); MIC (Escherichia coli K-12; [24]): 0.39 µg/mL (≈ 0.742 µM)
3 | NCC(O)C(=O)N[C@@H]1C[C@H](N)[C@@H](O[C@H]2O[C@H](CN)[C@@H](O)C[C@H]2N)[C@H](O[C@@H]2O[C@H](CO)[C@H](O)[C@H]2O)[C@H]1O (stereo partly drawn) [Compound No. 1, 1N-((RS)-3-amino-2-hydroxypropionyl)-3'-deoxy-5-O-β-D-xylofuranosylneamine] | 3.12 (≈ 5.94 µM) |  | 3.12 (≈ 5.94 µM) | 6.25 (≈ 11.9 µM) |  | 25 (≈ 47.6 µM) |  | 0.39 (≈ 0.742 µM) | 25 (≈ 47.6 µM) | 12.5 (≈ 23.8 µM) | 12.5 (≈ 23.8 µM) | 1.56 (≈ 2.97 µM) | 3.12 (≈ 5.94 µM) | 3.12 (≈ 5.94 µM) | 3.12 (≈ 5.94 µM) | 3.12 (≈ 5.94 µM) | 3.12 (≈ 5.94 µM) | 12.5 (≈ 23.8 µM) | > 100 | 1.56 (≈ 2.97 µM) | MIC ([2]; K12W677, 18 h): 1.56 µg/mL (≈ 2.97 µM); MIC ([3]; 18 h): 1.56 µg/mL (≈ 2.97 µM); MIC [18]: 6.25 µg/mL (≈ 11.9 µM); MIC ([6]; K12ML1629, 18 h): 1.56 µg/mL (≈ 2.97 µM); MIC (Escherichia coli NIHJ; 18 h): 1.56 µg/mL (≈ 2.97 µM); MIC (Bacillus subtilis B-558; B558, 18 h): 1.56 µg/mL (≈ 2.97 µM); MIC ([8]; PCI602, 18 h): 1.56 µg/mL (≈ 2.97 µM); MIC (Escherichia coli K-12; K12, 18 h): 1.56 µg/mL (≈ 2.97 µM)
